Data on one compound can be found in patent US20080253972A1, “Aqueous/alcoholic deodorant composition comprising a water-soluble zinc salt and salicylic acid” (priority 2006, published 2008).

The subject of the experiment is Corynebacterium xerosis. Put plainly: Quantitative determination of bactericidal activity with regard to microorganisms involved in axillary odors. Type of experiment: cell-based. To be noted: 24 hours contact, carrier gel pH 7, Log reduction classes. The source says:
The test described here makes possible the quantitative determination of the bactericidal activity of an active principle (i.e.: zinc salicylate/salicylic acid or triclosan) conveyed in an appropriate carrier which is neutral with regard to the bacteria tested. The bacteria studied were microorganisms under optimum growth conditions, namely microorganisms of the Corynebacterium xerosis type (Institut Pasteur Collection No. 5216) cultured on a gradient of tryptocasein soybean agar.
The day before the test, 32 g of tryptocasein soybean broth was placed in a sample tube and incubated at 35° C. The day of the test, 4 g of the test composition was added and the mixture was homogenized using a Vortex render.
A growth control without product was also prepared under the same conditions in order to confirm that the microorganisms are under favorable growth conditions throughout the duration of the test. […]
The colonies on the dishes comprising more than 20 and less than 200 colonies were counted. […]
The following two carrier gels A and B were prepared (amounts expressed as percentages by weight): […]
The bactericidal activity of each of formulations 9 and 10 (see below) with regard to the Corynebacterium xerosis strain was measured and compared to a formulation devoid of active principle.

Each structure is given as a SMILES string.

With `Oc1cc(Cl)ccc1Oc1ccc(Cl)cc1Cl` [Triclosan, 2,4,4′-trichloro-2′-hydroxydiphenyl ether], the “Effectiveness at 24 hours with respect to the gel devoid of active principle” value is given as “Excellent”.
